Here are results for 3 compounds from ChEMBL document CHEMBL5338737, “Lysine-Specific Demethylase 1 Promises to Be a Novel Target in Cancer Drug Resistance: Therapeutic Implications” (J Med Chem, 2023).

Broadly, the IC50 is the concentration that inhibits the measured activity by half.

Experiment [1] addresses T1, Lysine-specific histone demethylase 1A (Homo sapiens, UniProt O60341).
Description: Inhibition of LSD1 (unknown origin)
The target in experiment [2] is T1, Lysine-specific histone demethylase 1A. In words: Inhibition of recombinant LSD1 (unknown origin) incubated for 1 hr by fluorescence based analysis.

With `C/C(=N\NC(=O)c1cccc(S(=O)(=O)N2CCN(C)CC2)c1)c1cc(Cl)ccc1O`, in experiment [1], the IC50 amounted to 127 nM.
The same measure, in the same setting: next, `NC1CC1c1ccc(NC(=O)c2ccc(O)c3ncccc23)cc1` (stereo not drawn): under 1000 nM.
As to `COc1cc2c(c(O)c1OC)c(=O)c1ccccc1n2C` [ARBORININE], in experiment [2], the IC50 came to 400 nM.
